Data from patent publication US20210047262A1, “2-(3,4-DIHYDROXYPHENYL)ETHYL 3-HYDROXYBUTANOATE, COMPOSITION, AND METHOD FOR IMPROVING FUNCTION OF AORTIC ENDOTHELIAL CELL” (XI'AN JIAOTONG UNIVERSITY, priority 2019, published 2021).

Assays:
[1] = test system: Human aortic endothelial cells (HAECs); test: MTT assay, cell viability of HAECs; type: cell-based; details: FIG. 1
Procedure: (§1) Human aortic endothelial cells (HAECs) were purchased from Shanghai Shanghai Bioleaf Biotech Co., Ltd. Palmitic acid (PA) was purchased from SIGMA Company. A palmitic acid solution having a concentration of 500 μM was prepared by dissolving palmitic acid in water. A cell culture incubator was adopted to culture the cells in a temperature-constant, humidified, sterile condition. The cells were cultured in wells of culture plates at an atmosphere of 95% air and 5% CO2 at 37° C. in the incubator. The experiments were performed on different experimental groups of cells.
The HAECs that were previously cultured in a 12-well cell culture plates were divided into 6 different experimental groups and respectively applied with HT-HB in different concentrations, 0 μM, 1 μM, 10 μM, 50 μM, 100 μM, and 200 μM, all followed with an 24-hour incubation. Then, each of the 6 groups of cells was further divided into two sub groups, one was applied with 500 µM palmitic acid, the other was not, all followed with another 24-hour incubation.
An MTT assay was performed to all groups of cells. […] The absorbance was measured at a wavelength of 490 nm in a spectrophotometer. The absorbance of this colored solution can be quantified by measuring at a certain wavelength (usually between 500 and 600 nm) by a spectrophotometer.

interleukin-6 (IL-6) = test: IL-6 mRNA level detection (RT-PCR) in HAECs; type: cell-based, human; details: FIG. 2
Procedure: as §1
The HAECs that were previously cultured in a 12-well cell culture plate were divided into 4 different experimental groups and respectively applied with HT-HB in different concentrations, 0 μM, 0 μM, 50 μM, 100 μM, all followed with an 24-hour incubation. Then, the last 3 groups of cells were respectively applied with 500 μM palmitic acid, the first was not, all followed with another 24-hour incubation. The detecting of mRNA levels corresponding to interleukin-6 (IL-6) was respectively carried out on each group of cells by using reverse transcription RNA and real-time quantitative polymerase chain reaction (PCR), and the specific method is as follows:
The medium for cell culture in the wells was removed. […] The concentration of the solution was measured by an ultraviolet spectrophotometer. […]

mitochondrial complex I = test: Protein detection by Western blot in HAECs, mitochondrial complex I; type: cell-based, human; details: FIG. 3A, 3B
Procedure: as §1
The HAECs that were previously cultured in a 6-well cell culture plate were divided into 3 different experimental groups, the control (Ctrl) group, the PA group, and the HT-HB+PA group. The cells of the HT-HB+PA group were applied with HT-HB in a concentration of 100 µM followed with an 24-hour incubation. […]
The medium for cell culture in the wells was removed. […] The supernatants were collected, and the proteins therein were quantified by bicinchoninic acid (BCA) assay, and normalized. […]
10 μg of the extracted proteins were subjected to gel electrophoresis with 10% acrylamide gel, and electrophoretic transferred onto a PVDF membrane, which were blocked, and incubated with a primary antibody at 4° C. overnight, free primary antibody was washed away. […] Target proteins were detected by chemiluminescence.

mitochondrial complex II = test: Protein detection by Western blot in HAECs, mitochondrial complex II; type: cell-based, human; details: 500 μM palmitic acid 24 h, vs control, FIG. 3A, 3B
Procedure: Human aortic endothelial cells (HAECs) were purchased from Shanghai Shanghai Bioleaf Biotech Co., Ltd. Palmitic acid (PA) was purchased from SIGMA Company. A palmitic acid solution having a concentration of 500 μM was prepared by dissolving palmitic acid in water. A cell culture incubator was adopted to culture the cells in a temperature-constant, humidified, sterile condition. The cells were cultured in wells of culture plates at an atmosphere of 95% air and 5% CO2 at 37° C. in the incubator. The experiments were performed on different experimental groups of cells. The HAECs that were previously cultured in a 6-well cell culture plate were divided into 3 different experimental groups, the control (Ctrl) group, the PA group, and the HT-HB+PA group. The cells of the HT-HB+PA group were applied with HT-HB in a concentration of 100 µM followed with an 24-hour incubation. Then, the cells of both the PA group and the HT-HB+PA group were applied with 500 μM palmitic acid, all followed with another 24-hour incubation. The protein detection was respectively carried out on each group of cells as follows. The medium for cell culture in the wells was removed. […] The supernatants were collected, and the proteins therein were quantified by bicinchoninic acid (BCA) assay, and normalized. […] Target proteins were detected by chemiluminescence.

With CC(O)CC(=O)OCCc1ccc(O)c(O)c1 (stereo not shown) [HT-HB, 2-(3,4-dihydroxyphenyl)ethyl 3-hydroxybutanoate] the relative cell viability ([1]; HAECs not treated with palmitic acid, HT-HB 1 μM to 100 μM, vs cells without HT-HB (control)) was “higher viabilities”, the relative cell viability ([1]; HAECs pretreated with HT-HB 1 μM to 100 μM for 24 h, then 500 µM palmitic acid 24 h, vs palmitic acid treated cells without HT-HB) was “higher viabilities” and the “mRNA level corresponding to IL-6” value (interleukin-6 (IL-6); HAECs pretreated with HT-HB 100 M for 24 h, then 500 μM palmitic acid 24 h) was “significantly decreased”. The “relative protein expression level of mitochondrial complex I” value (mitochondrial complex I; HT-HB 100 M 24 h, then 500 μM palmitic acid 24 h, vs PA group) was “significantly increasing the expression”.
CCCCCCCCCCCCCCCC(=O)O [palmitic acid, reference compound] was tested, and the “increase of mRNA level corresponding to IL-6” value (interleukin-6 (IL-6); HAECs, 500 μM palmitic acid 24 h, vs control group) was “about 10 times”, the “relative protein expression level of mitochondrial complex I” value (mitochondrial complex I; 500 μM palmitic acid 24 h, vs control) was “reducing the expression” and the “relative protein expression level of mitochondrial complex II” value (mitochondrial complex II) was “reducing the expression”.
